In ChEMBL document CHEMBL3046544, “Inhibitory Activity of N-Substituted-2-piperidones with a 1, 4-Benzodioxan Ring on Germination of Barnyardgrass” (J Pestic Sci, 2001):

Assays:
Echinochloa esculenta [1] = test: Herbicidal activity against Echinochloa esculenta assessed as inhibition of seed germination at 100 nM after 5 days relative to control; assay type: functional; conditions: 120 h
Echinochloa esculenta [2] = test: Herbicidal activity against Echinochloa esculenta assessed as inhibition of seed germination at 1000 nM after 5 days relative to control; assay type: functional; conditions: 120 h
Echinochloa esculenta [3] = test: Herbicidal activity against Echinochloa esculenta assessed as inhibition of seed germination at 1 nM after 5 days relative to control; assay type: functional; conditions: 120 h
Echinochloa esculenta [4] = test: Herbicidal activity against Echinochloa esculenta assessed as inhibition of seed germination at 10 nM after 5 days relative to control; assay type: functional; conditions: 120 h
Oryza sativa [5] = test: Herbicidal activity against Oryza sativa (rice) assessed as inhibition of seed germination after 7 days relative to control; assay type: functional, organism-based; conditions: 168 h
Echinochloa esculenta [6] = test: Herbicidal activity against Echinochloa esculenta assessed as inhibition of seed germination after 5 days relative to control; assay type: functional, organism-based; conditions: 120 h
Oryza sativa [7] = test: Herbicidal activity against Oryza sativa (rice) assessed as inhibition of seed germination at > 90 nM after 7 days relative to control; assay type: functional, organism-based; conditions: 168 h
Echinochloa esculenta [8] = test: Herbicidal activity against Echinochloa esculenta assessed as inhibition of seed germination at 0.1 nM after 5 days relative to control; assay type: functional; conditions: 120 h

CC(C)C(O)C1CCCN(Cc2ccccc2)C1=O (mixture of isomers)
inhibition at 0.1 µM (Echinochloa esculenta [1]): < 49% | inhibition at 1 µM (Echinochloa esculenta [2]): < 49% | inhibition at 0.001 µM (Echinochloa esculenta [3]): < 49% | inhibition at 0.01 µM (Echinochloa esculenta [4]): < 49%

CC(C)CCC(O)C1CCCN(Cc2ccccc2)C1=O (mixture of isomers)
inhibition at 0.1 µM (Echinochloa esculenta [1]): 50% | inhibition at 1 µM (Echinochloa esculenta [2]): 50% | inhibition at 0.001 µM (Echinochloa esculenta [3]): < 49% | inhibition at 0.01 µM (Echinochloa esculenta [4]): < 49%

O=C1C(C(O)C2CCCCC2)CCCN1Cc1ccccc1 (mixture of isomers)
inhibition at 0.1 µM (Echinochloa esculenta [1]): < 49% | inhibition at 1 µM (Echinochloa esculenta [2]): < 49% | inhibition at 0.001 µM (Echinochloa esculenta [3]): < 49% | inhibition at 0.01 µM (Echinochloa esculenta [4]): < 49%

O=C1C(C(O)c2ccc3c(c2)OCCO3)CCCN1Cc1ccccc1 (mixture of isomers)
inhibition at 0.1 µM (Echinochloa esculenta [1]): > 90% | IC50 (Oryza sativa [5]): > 90 nM | IC50 (Echinochloa esculenta [6]): 8.8 nM | inhibition at 1 µM (Echinochloa esculenta [2]): > 90% | inhibition at 0.001 µM (Echinochloa esculenta [3]): < 49% | inhibition at 0.01 µM (Echinochloa esculenta [4]): > 90% | IC50 (Oryza sativa [7]): 10 nM

O=C1C(C(O)c2ccc3c(c2)OCCO3)CCCN1CC=C(c1ccccc1)c1ccccc1 (mixture of isomers)
inhibition at 0.0001 µM (Echinochloa esculenta [8]): < 49% | inhibition at 0.1 µM (Echinochloa esculenta [1]): > 90% | inhibition at 1 µM (Echinochloa esculenta [2]): > 90% | inhibition at 0.001 µM (Echinochloa esculenta [3]): < 49% | inhibition at 0.01 µM (Echinochloa esculenta [4]): > 90%

O=C1C(C(O)c2ccc3c(c2)OCCO3)CCCN1C/C=C/c1ccccc1 (mixture of isomers)
inhibition at 0.0001 µM (Echinochloa esculenta [8]): < 49% | inhibition at 0.1 µM (Echinochloa esculenta [1]): > 90% | IC50 (Oryza sativa [5]): > 90 nM | IC50 (Echinochloa esculenta [6]): 1.4 nM | inhibition at 1 µM (Echinochloa esculenta [2]): > 90% | inhibition at 0.001 µM (Echinochloa esculenta [3]): < 49% | inhibition at 0.01 µM (Echinochloa esculenta [4]): > 90% | IC50 (Oryza sativa [7]): 25 nM

O=C1C(C(O)c2ccc3c(c2)OCCO3)CCCN1/C=C/c1ccccc1 (mixture of isomers)
inhibition at 0.0001 µM (Echinochloa esculenta [8]): < 49% | inhibition at 0.1 µM (Echinochloa esculenta [1]): > 90% | inhibition at 1 µM (Echinochloa esculenta [2]): > 90% | inhibition at 0.001 µM (Echinochloa esculenta [3]): < 49% | inhibition at 0.01 µM (Echinochloa esculenta [4]): 50%

O=C1C(C(O)c2ccc3c(c2)OCCO3)CCCN1c1ccccc1 (mixture of isomers)
inhibition at 0.0001 µM (Echinochloa esculenta [8]): < 49% | inhibition at 0.1 µM (Echinochloa esculenta [1]): < 49% | inhibition at 1 µM (Echinochloa esculenta [2]): < 49% | inhibition at 0.001 µM (Echinochloa esculenta [3]): < 49% | inhibition at 0.01 µM (Echinochloa esculenta [4]): < 49%

C=CCN1CCCC(C(O)c2ccc3c(c2)OCCO3)C1=O (mixture of isomers)
inhibition at 0.0001 µM (Echinochloa esculenta [8]): < 49% | inhibition at 0.1 µM (Echinochloa esculenta [1]): < 49% | inhibition at 1 µM (Echinochloa esculenta [2]): 50% | inhibition at 0.001 µM (Echinochloa esculenta [3]): < 49% | inhibition at 0.01 µM (Echinochloa esculenta [4]): < 49%

O=C1NCCCC1C(O)c1ccc2c(c1)OCCO2 (mixture of isomers)
inhibition at 0.0001 µM (Echinochloa esculenta [8]): < 49% | inhibition at 0.1 µM (Echinochloa esculenta [1]): < 49% | inhibition at 1 µM (Echinochloa esculenta [2]): > 90% | inhibition at 0.001 µM (Echinochloa esculenta [3]): < 49% | inhibition at 0.01 µM (Echinochloa esculenta [4]): < 49%

O=C1[C@H]([C@@H](O)c2ccc3c(c2)OCCO3)CCCN1C/C=C/c1ccccc1 (relative stereo)
IC50 (Oryza sativa [5]): > 1000 nM | IC50 (Echinochloa esculenta [6]): > 1000 nM

O=C1[C@@H]([C@@H](O)c2ccc3c(c2)OCCO3)CCCN1C/C=C/c1ccccc1 (relative stereo)
IC50 (Oryza sativa [5]): 8.1 nM | IC50 (Echinochloa esculenta [6]): 0.8 nM

O=C1[C@H]([C@@H](O)c2ccc3c(c2)OCCO3)CCCN1Cc1ccccc1 (relative stereo)
IC50 (Oryza sativa [5]): > 1000 nM | IC50 (Echinochloa esculenta [6]): > 1000 nM

O=C1[C@@H]([C@@H](O)c2ccc3c(c2)OCCO3)CCCN1Cc1ccccc1 (relative stereo)
IC50 (Oryza sativa [5]): > 90 nM | IC50 (Echinochloa esculenta [6]): 4.5 nM | IC50 (Oryza sativa [7]): 30 nM
